Results from ChEMBL document CHEMBL5338775, “Discovery of a Novel Class of PROTACs as Potent and Selective Estrogen Receptor α Degraders to Overcome Endocrine-Resistant Breast Cancer In Vitro and In Vivo” (J Med Chem, 2023).
Active and inactive are the calls of the source. The rule behind the calls is not given here.

How the values were obtained:
[1] = target: T1, von Hippel-Lindau disease tumor suppressor/Estrogen receptor (Homo sapiens) (UniProt P03372+P40337); assay: PROTAC activity at VHL/wild type ERalpha in ER-positive human MCF7 cells assessed as induction of ERalpha degradation at 1 uM incubated for 12 hrs by Western blot analysis; assay type: cell-based
Estrogen receptor beta [2] = target: T2, Estrogen receptor beta (Homo sapiens, UniProt Q92731)
T47D [3] = assay: Inhibition of gene transcription in human T47D cells assessed as reduction in Pol II occupancy at GREB1 promoter region by ChIP-seq analysis; assay type: functional, cell-based
[4] = target: T1, von Hippel-Lindau disease tumor suppressor/Estrogen receptor (Homo sapiens); assay: PROTAC activity at VHL/ERalpha in ER-positive human MCF7 cells assessed as induction of ERalpha degradation at 1 uM incubated for 12 hrs in presence of (2S,4R)-1-[(2S)-2-amino-3,3-dimethylbutanoyl]-4-hydroxy-N-[(1S)-1-[4-(4-methyl-1,3-thiazol-5-yl)phenyl]ethyl]pyrrolidine-2-carboxamide by Western blot analysis; assay type: cell-based
[5] = target: von Hippel-Lindau disease tumor suppressor/Estrogen receptor beta (Homo sapiens) (UniProt Q92731+P40337); assay: PROTAC activity at VHL/ERbeta in human NCI-H1975 cells assessed as induction of ERbeta degradation at 1 to 10 uM incubated for 12 hrs by Western blot analysis; assay type: cell-based; conditions: dose 1-10 µM
[6] = Toxicity in BALB/c nude mouse xenografted with human tamoxifen-sensitive MCF7 cells assessed as mortality at 1 to 10 micromol/kg, ip administered once every 2 days and measured every 2 days; assay type: organism-based; conditions: in vivo, 48 h, dose 1-10 µmol/kg
cells = conditions: Homo sapiens, Tamoxifen-resistant LCC2 cell, 72 h
MCF7 [7] = assay: Antitumor activity against human tamoxifen-sensitive MCF7 cells xenografted in BALB/c nude mouse assessed as reduction in cell proliferation at 5 micromol/kg, ip administered once every 2 days by ki67 staining based analysis; assay type: functional, organism-based; conditions: dose 5.0 µmol/kg
[8] = target: T1, von Hippel-Lindau disease tumor suppressor/Estrogen receptor (Homo sapiens); assay: PROTAC activity at VHL/ERalpha in ER-positive human MCF7 cells assessed as induction of ERalpha degradation at 1 uM incubated for 12 hrs in presence of proteasome inhibitor, MG132 by Western blot analysis; assay type: cell-based
[9] = target: T1, von Hippel-Lindau disease tumor suppressor/Estrogen receptor (Homo sapiens); assay: PROTAC activity at VHL/ERalpha in ER-positive human MCF7 cells assessed as induction of ERalpha degradation at 0.01 to 10 uM incubated for 12 hrs by Western blot analysis; assay type: cell-based; conditions: dose 0.01-10 µM
[10] = target: T3, Estrogen receptor (Homo sapiens) (UniProt P03372); assay: Inhibition of ERalpha binding to DNA in human T47D cells assessed as reduction in protein occupancy incubated for 6 hrs by ChIP-seq analysis; assay type: cell-based
T3 sequence (whole entry): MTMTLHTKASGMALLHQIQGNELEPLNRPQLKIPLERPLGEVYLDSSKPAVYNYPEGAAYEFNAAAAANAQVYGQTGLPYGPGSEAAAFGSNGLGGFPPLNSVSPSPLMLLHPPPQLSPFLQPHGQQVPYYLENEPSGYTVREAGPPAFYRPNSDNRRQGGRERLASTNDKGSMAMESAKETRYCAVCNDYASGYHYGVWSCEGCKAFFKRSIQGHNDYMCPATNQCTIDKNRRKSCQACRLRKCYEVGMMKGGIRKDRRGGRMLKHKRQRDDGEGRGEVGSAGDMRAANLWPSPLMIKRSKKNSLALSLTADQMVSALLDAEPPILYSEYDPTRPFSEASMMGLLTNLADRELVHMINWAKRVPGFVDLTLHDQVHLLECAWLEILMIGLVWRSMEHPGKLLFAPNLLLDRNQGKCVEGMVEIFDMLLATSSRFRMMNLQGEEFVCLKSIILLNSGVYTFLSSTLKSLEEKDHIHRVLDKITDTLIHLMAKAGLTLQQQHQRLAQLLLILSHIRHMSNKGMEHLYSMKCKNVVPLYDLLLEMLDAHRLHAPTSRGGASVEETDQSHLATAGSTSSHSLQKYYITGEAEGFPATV

Mus musculus = assay: In vivo protac activity at VHL/ERalpha in BALB/c nude mouse xenografted with human tamoxifen-sensitive MCF7 cells assessed as reduction in ERalpha protein levels in tumor at 1 to 10 micromol/kg, ip administered once every 2 days by Western blot analysis; assay type: functional, organism-based; conditions: dose 1-10 µmol/kg
MCF7 [11] = assay: Induction of cell cycle arrest in human MCF7 cells at 1 to 10 uM incubated for 24 hrs; assay type: functional, cell-based; conditions: dose 1-10 µM
T47D [12] = assay: Inhibition of gene transcription in human T47D cells assessed as reduction in H3K27ac levels in IGFBP4 promoter region by ChIP-seq analysis; assay type: functional, cell-based
[13] = system: tamoxifen-resistant LCC2 cell; assay: Antitumor activity against human ER-positive tamoxifen-resistant LCC2 cells xenografted in BALB/c nude mouse assessed as reduction in tumor growth at 5 micromol/kg, ip administered once every 2 days and measured every 2 days; assay type: functional, organism-based; conditions: dose 5.0 µmol/kg
MCF7 [14] = assay: Antitumor activity against human tamoxifen-sensitive MCF7 cells xenografted in BALB/c nude mouse assessed as inhibition of tumor growth at 1 to 10 micromol/kg, ip administered once every 2 days and measured every 2 days; assay type: functional, organism-based; conditions: dose 1-10 µmol/kg
T47D [15] = assay: cells; conditions: Homo sapiens, 72 h
[16] = Selectivity index, ratio of Ki for ERalpha (unknown origin) to Ki for ERbeta (unknown origin)
T47D [17] = assay: Inhibition of nascent GREB1 RNA synthesis in human T47D cells incubated for 6 hrs by 4-thiouridine incorporation assay; assay type: functional, cell-based
MCF7 [18] = assay: cells; conditions: Homo sapiens, MCF7, 72 h
[19] = target: T1, von Hippel-Lindau disease tumor suppressor/Estrogen receptor (Homo sapiens); assay: PROTAC activity at VHL/ERalpha in ER-positive human MCF7 cells assessed as induction of ERalpha degradation at 1 uM incubated for 12 hrs in presence of N-ethyl-5,6-bis(4-hydroxyphenyl)-N-(4-methoxyphenyl)-7-oxabicyclo[2.2.1]hept-5-ene-2-sulfonamide by Western blot analysis; assay type: cell-based
MCF7 [20] = assay: Antitumor activity against human tamoxifen-sensitive MCF7 cells xenografted in BALB/c nude mouse assessed as increase in tumor necrosis area at 5 micromol/kg, ip administered once every 2 days by […] staining based analysis; assay type: functional, organism-based; conditions: dose 5.0 µmol/kg
[21] = Toxicity in BALB/c nude mouse xenografted with human tamoxifen-sensitive MCF7 cells assessed as pathological changes in heart at 1 to 10 micromol/kg, ip administered once every 2 days by H and E staining based assay; assay type: organism-based; conditions: in vivo, 48 h, dose 1-10 µmol/kg
in vitro = conditions: human, MCF-10A cells
T47D [22] = assay: Inhibition of gene transcription in human T47D cells assessed as reduction in H3K27ac levels in GREB1 promoter region by ChIP-seq analysis; assay type: functional, cell-based
[23] = Toxicity in BALB/c nude mouse xenografted with human tamoxifen-sensitive MCF7 cells assessed as pathological changes in kidney at 1 to 10 micromol/kg, ip administered once every 2 days by H and E staining based assay; assay type: organism-based; conditions: in vivo, 48 h, dose 1-10 µmol/kg
[24] = Toxicity in BALB/c nude mouse xenografted with human tamoxifen-sensitive MCF7 cells assessed as reduction in body weight at 1 to 10 micromol/kg, ip administered once every 2 days and measured every 2 days; assay type: organism-based; conditions: in vivo, 48 h, dose 1-10 µmol/kg
T47D [25] = assay: cells; conditions: Homo sapiens, 72 h; remark: listed apart in the source
[26] = target: T1, von Hippel-Lindau disease tumor suppressor/Estrogen receptor (Homo sapiens); assay: PROTAC activity at VHL/wild type ERalpha in ER-positive human T47D cells assessed as induction of ERalpha degradation at 2 uM incubated for 12 hrs by Western blot analysis; assay type: cell-based
[27] = Selectivity ratio of relative binding affinity for ERalpha (unknown origin) to relative binding affinity to ERbeta (unknown origin)
Estrogen receptor beta [28] = target: T2, Estrogen receptor beta; assay: Binding affinity to ERbeta (unknown origin) assessed as relative binding affinity incubated for 2 hrs by fluorescence polarization assay relative to estradiol
T47D [29] = assay: Inhibition of gene transcription in human T47D cells assessed as reduction in Pol II occupancy at IGFBP4 promoter region by ChIP-seq analysis; assay type: functional, cell-based
MDA-MB-231 = assay: cells; conditions: Homo sapiens, MDA-MB-231, 72 h
Estrogen receptor = target: T4, Estrogen receptor (Homo sapiens, UniProt P03372)
T4 sequence (P03372 whole entry): T3 sequence (whole entry)

[30] = target: T1, von Hippel-Lindau disease tumor suppressor/Estrogen receptor (Homo sapiens); assay: PROTAC activity at VHL/ERalpha in ER-positive human tamoxifen-resistant LCC2 cells assessed as induction of ERalpha degradation at 2 uM incubated for 12 hrs by Western blot analysis; assay type: cell-based; conditions: tamoxifen-resistant LCC2 cell
MCF7 [31] = assay: Induction of apoptosis in human MCF7 cells at 1 to 10 uM incubated for 24 hrs by Annexin V-FITC/PI staining based analysis; assay type: functional, cell-based; conditions: dose 1-10 µM
T47D [32] = assay: cells; conditions: Homo sapiens, 72 h; remark: listed apart in the source
T47D [33] = assay: Inhibition of nascent IGFBP4 RNA synthesis in human T47D cells incubated for 6 hrs by 4-thiouridine incorporation assay; assay type: functional, cell-based
[34] = Toxicity in BALB/c nude mouse xenografted with human tamoxifen-sensitive MCF7 cells assessed as pathological changes in liver at 1 to 10 micromol/kg, ip administered once every 2 days by H and E staining based assay; assay type: organism-based; conditions: in vivo, 48 h, dose 1-10 µmol/kg

T1 sequence (P40337 whole entry, looked up, one chain of several): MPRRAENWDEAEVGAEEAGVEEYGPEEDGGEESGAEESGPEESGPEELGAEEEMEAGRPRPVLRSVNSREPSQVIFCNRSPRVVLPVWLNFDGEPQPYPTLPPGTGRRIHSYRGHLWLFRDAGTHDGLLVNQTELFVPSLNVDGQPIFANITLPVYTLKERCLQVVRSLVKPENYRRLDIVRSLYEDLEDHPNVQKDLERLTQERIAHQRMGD
T2 sequence (Q92731 whole entry): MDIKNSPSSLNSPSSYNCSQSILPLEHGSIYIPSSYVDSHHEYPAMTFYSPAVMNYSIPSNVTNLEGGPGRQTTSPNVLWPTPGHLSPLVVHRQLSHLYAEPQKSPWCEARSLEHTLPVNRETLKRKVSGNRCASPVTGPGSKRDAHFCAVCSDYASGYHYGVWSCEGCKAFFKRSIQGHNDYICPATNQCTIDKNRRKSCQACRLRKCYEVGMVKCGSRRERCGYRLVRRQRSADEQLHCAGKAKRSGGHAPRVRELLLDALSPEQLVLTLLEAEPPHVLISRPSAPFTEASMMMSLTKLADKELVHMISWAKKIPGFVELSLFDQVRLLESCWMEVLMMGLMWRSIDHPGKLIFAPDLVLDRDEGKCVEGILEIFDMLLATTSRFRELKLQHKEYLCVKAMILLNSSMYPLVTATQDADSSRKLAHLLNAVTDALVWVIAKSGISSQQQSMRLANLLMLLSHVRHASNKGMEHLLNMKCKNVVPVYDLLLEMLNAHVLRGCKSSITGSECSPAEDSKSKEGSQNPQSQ
Sequence of von Hippel-Lindau disease tumor suppressor/Estrogen receptor beta (Homo sapiens) (P40337 whole entry, looked up): as the sequence (P40337 whole entry, looked up, one chain of several) above
Sequence of von Hippel-Lindau disease tumor suppressor/Estrogen receptor beta (Homo sapiens) (Q92731 whole entry, looked up): as the sequence (Q92731 whole entry) above

Structure (SMILES): CCN(c1ccc(OCCCCCC(=O)N[C@H](C(=O)N2C[C@H](O)C[C@H]2C(=O)N[C@@H](C)c2ccc(-c3scnc3C)cc2)C(C)(C)C)cc1)S(=O)(=O)C1CC2OC1C(c1ccc(O)cc1)=C2c1ccc(O)cc1 (some centres undefined)
- Activity [1]: Active
- Ki (Estrogen receptor beta [2]): 13.1 µM
- inhibition (T47D [3]): Active
- Activity [4]: inactive
- Activity [5]: inactive
- Activity [6]: Non-Toxic
- IC50 (cells): 12.3 µM
- Activity (MCF7 [7]): Active
- Activity [8]: inactive
- Activity [9]: Active
- inhibition [10]: Active
- Activity (Mus musculus): Active
- Activity (MCF7 [11]): Active
- inhibition (T47D [12]): Active
- Activity [13]: Active
- inhibition (MCF7 [14]): Active
- IC50 (T47D [15]): 8.12 µM
- Ratio Ki [16]: 5.16
- inhibition (T47D [17]): Active
- IC50 (MCF7 [18]): 0.31 µM
- Activity [19]: inactive
- Activity (MCF7 [20]): Active
- Activity [21]: Non-Toxic
- IC50 at 72 h (in vitro): > 100 µM
- inhibition (T47D [22]): Active
- Activity [23]: Non-Toxic
- Activity [24]: Non-Toxic
- IC50 (T47D [25]): 9.52 µM
- Activity [26]: Active
- Selectivity ratio [27]: 1.33
- RBA (Estrogen receptor beta [28]): 0.06%
- inhibition (T47D [29]): Active
- IC50 (MDA-MB-231): > 100 µM
- Ki (Estrogen receptor): 2.54 µM
- Activity [30]: Active
- Activity (MCF7 [31]): Active
- IC50 (T47D [32]): 7.51 µM
- inhibition (T47D [33]): Active
- Activity [34]: Non-Toxic
